Measurements reported in ChEMBL document CHEMBL1201862, “PubChem BioAssay data set” (2004).
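Tested at 5 concentrations; 48 h exposure; 96-well plates; endpoints linearly interpolated, else capped at highest concentration. GI50 marks 50% less growth.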 Activity calls are given as the source filed them. No stated cut-off is given here; in the data, active = GI50 up to about 1.1 µM and inactive = higher.

Experiments:
Test in all cases: DTP human tumour cell line panel, 48 h
SW-620 = tested on: SW-620
CAKI-1 = tested on: CAKI-1
KM-20L2 = tested on: KM-20L2
SF-268 = tested on: SF-268
NCI-H522 = tested on: NCI-H522
TK-10 = tested on: TK-10
K562 = tested on: K562
HL-60 = tested on: HL-60
UACC-257 = tested on: UACC-257
SNB-75 = tested on: SNB-75
SK-OV-3 = tested on: SK-OV-3
RXF 393 = tested on: RXF 393
RPMI-8226 = tested on: RPMI-8226
SK-MEL-2 = tested on: SK-MEL-2
Malme-3M = tested on: Malme-3M
NCI-H226 = tested on: NCI-H226
HOP-62 = tested on: HOP-62
SK-MEL-28 = tested on: SK-MEL-28
SNB-19 = tested on: SNB-19
A498 = tested on: A498

| SMILES | GI50 (SW-620) | GI50 (CAKI-1) | GI50 (KM-20L2) | GI50 (SF-268) | GI50 (NCI-H522) | GI50 (TK-10) | GI50 (K562) | GI50 (HL-60) | GI50 (UACC-257) | GI50 (SNB-75) | GI50 (SK-OV-3) | GI50 (RXF 393) | GI50 (RPMI-8226) | GI50 (SK-MEL-2) | GI50 (Malme-3M) | GI50 (NCI-H226) | GI50 (HOP-62) | GI50 (SK-MEL-28) | GI50 (SNB-19) | GI50 (A498) |
| --- | --- | --- | --- | --- | --- | --- | --- | --- | --- | --- | --- | --- | --- | --- | --- | --- | --- | --- | --- | --- |
| COc1cccc(NC(=O)CSc2nnc(-c3ccc(NC(C)=O)cc3)o2)c1 | > 100 µM (inactive) | > 100 µM (inactive) | 94.6 µM (inactive) | > 100 µM (inactive) | > 100 µM (inactive) | > 100 µM (inactive) | > 100 µM (inactive) | > 100 µM (inactive) | > 100 µM (inactive) | 30.5 µM (inactive) | > 100 µM (inactive) | > 100 µM (inactive) | > 100 µM (inactive) | > 100 µM (inactive) | > 100 µM (inactive) | > 100 µM (inactive) | > 100 µM (inactive) | > 100 µM (inactive) | – | – |
| Cc1cc(C=O)c2c(=O)c3c(O)ccc(/C=C/C(C)C)c3oc2c1 | 28.1 µM (inactive) | 64.7 µM (inactive) | > 100 µM (inactive) | 41.9 µM (inactive) | 28.7 µM (inactive) | > 100 µM (inactive) | 39.8 µM (inactive) | 28.3 µM (inactive) | > 100 µM (inactive) | 95.1 µM (inactive) | – | – | 23.1 µM (inactive) | > 100 µM (inactive) | > 100 µM (inactive) | > 100 µM (inactive) | > 100 µM (inactive) | 37.9 µM (inactive) | > 100 µM (inactive) | – |
| COc1ccc(Oc2nc3cc(C(F)(F)F)ccc3nc2C(C)C)cc1 | 30.8 µM (inactive) | 35.2 µM (inactive) | – | 32.7 µM (inactive) | 19.1 µM (inactive) | 81.7 µM (inactive) | 24.6 µM (inactive) | 18.7 µM (inactive) | 26.1 µM (inactive) | 25.4 µM (inactive) | 38.7 µM (inactive) | 15.8 µM (inactive) | 19.4 µM (inactive) | 18.5 µM (inactive) | 24.7 µM (inactive) | 21 µM (inactive) | 40.4 µM (inactive) | 48 µM (inactive) | 33.1 µM (inactive) | 20 µM (inactive) |
| CC(C)(C)C1=CC(=C2C=Cc3cc(O)ccc3O2)C=C(C(C)(C)C)C1=O | 1.38 µM (inactive) | 1.62 µM (inactive) | – | 1.81 µM (inactive) | 1.48 µM (inactive) | 1.7 µM (inactive) | 2.13 µM (inactive) | 1.08 µM (active) | 1.57 µM (inactive) | 1.73 µM (inactive) | 2.21 µM (inactive) | 1.45 µM (inactive) | 0.782 µM (active) | 1.63 µM (inactive) | 1.59 µM (inactive) | 1.85 µM (inactive) | 1.92 µM (inactive) | 1.73 µM (inactive) | 1.77 µM (inactive) | 1.5 µM (inactive) |
| CC1=NN=C(N)NC1=CC(Sc1ccc(Cl)cc1)c1c(O)ccc2ccccc12 (centres undefined) | 24.8 µM (inactive) | 23.7 µM (inactive) | – | 11.3 µM (inactive) | 15.5 µM (inactive) | 26.5 µM (inactive) | 38.5 µM (inactive) | > 10 µM (inactive) | 20.9 µM (inactive) | 18.6 µM (inactive) | 18.3 µM (inactive) | 4.75 µM (inactive) | 13.5 µM (inactive) | 5.02 µM (inactive) | 3.88 µM (inactive) | 4.55 µM (inactive) | 20.2 µM (inactive) | 14 µM (inactive) | 20.6 µM (inactive) | 18.7 µM (inactive) |
| Cc1ccccc1NC(=N)Nc1ccccc1C | > 100 µM (inactive) | > 100 µM (inactive) | – | > 100 µM (inactive) | > 100 µM (inactive) | > 100 µM (inactive) | > 100 µM (inactive) | > 100 µM (inactive) | > 100 µM (inactive) | 54.6 µM (inactive) | > 100 µM (inactive) | > 100 µM (inactive) | > 100 µM (inactive) | > 100 µM (inactive) | > 100 µM (inactive) | > 100 µM (inactive) | > 100 µM (inactive) | > 100 µM (inactive) | > 100 µM (inactive) | > 100 µM (inactive) |
| Nc1cccc(S(=O)(=O)NCC(=O)O)c1 | > 100 µM (inactive) | > 100 µM (inactive) | > 100 µM (inactive) | > 100 µM (inactive) | > 100 µM (inactive) | > 100 µM (inactive) | > 100 µM (inactive) | – | > 100 µM (inactive) | > 100 µM (inactive) | > 100 µM (inactive) | > 100 µM (inactive) | > 100 µM (inactive) | > 100 µM (inactive) | > 100 µM (inactive) | > 100 µM (inactive) | > 100 µM (inactive) | > 100 µM (inactive) | > 100 µM (inactive) | – |
